No end group written: not given here. *: point of attachment. FITC = O=C1OC2(c3ccc(O)cc3Oc3cc(O)ccc32)c2ccc(NC(=S)*)cc21

For experiment [1], the target named is FITC-labeled peptide derived from the wild-type C-terminal sequence of SciP (C. crescentus). Nature of the experiment: fluorescence polarisation.
In another experiment the target is T1, NTD of CcLon (aa. 1-206) (Caulobacter vibrioides, UniProt P0CAW0).
T1 sequence (P0CAW0 1-206): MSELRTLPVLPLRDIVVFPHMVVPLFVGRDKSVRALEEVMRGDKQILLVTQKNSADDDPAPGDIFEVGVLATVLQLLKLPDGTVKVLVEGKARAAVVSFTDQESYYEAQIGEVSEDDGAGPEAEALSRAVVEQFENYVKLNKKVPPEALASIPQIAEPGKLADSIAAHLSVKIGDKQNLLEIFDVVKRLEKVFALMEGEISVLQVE
In words: Fluorescence polarization, FITC-labeled degron peptides vs NTD. It is filed as binding, C. crescentus. To be noted: FP assay.

The test system of a further experiment is LarA-NTD complex. In words: Fluorescence polarization, FITC-labeled degron peptides vs LarA-NTD complex. The experiment is classed as binding, C. crescentus. The conditions noted are these: FP assay.

Regarding “LarA-NTD complex (from UniProt P0CAW0 1-206)”, the Kd in experiment [1] is 413 µM.

As for {FITC}-HEAAPASAH [pep-LarA-mut], the “FP binding to NTD (in words)” value on NTD of CcLon (aa. 1-206) is reported as “failed to bind”. Also, the “FP binding to LarA-NTD complex (in words)” value with LarA-NTD complex was “failed to bind”.

For {FITC}-HELAPVSVH [pep-LarA-amidated], the “FP binding to NTD (in words)” value at NTD of CcLon (aa. 1-206) is “no binding was observed”. In the experiment on LarA-NTD complex, the “FP binding to LarA-NTD complex (in words)” value is “comparable to that of pep-LarA”.

As to “{FITC}-QSADRHGAAGARTTRAQQYR [pep-SciP-mut]”, on NTD of CcLon (aa. 1-206), the “FP binding to NTD (in words)” value is given as “failed to bind”. Further, the “FP binding to LarA-NTD complex (in words)” value in the experiment with LarA-NTD complex is “failed to bind”.
